Laboratory results as given in patent publication US20240228448A1 (Washington University, priority 2021, published 2024).
Like-named read-outs stand apart in the source and are kept apart here. Each block holds one molecule with its values, some of them ahead of it.

Experiments:
S1P4 = biological target: T1, S1P4 (Homo sapiens, UniProt O95977); test: competitive S1Ps cell membrane binding assay against [32P]S1P, S1P4
T1 sequence (O95977 1-384): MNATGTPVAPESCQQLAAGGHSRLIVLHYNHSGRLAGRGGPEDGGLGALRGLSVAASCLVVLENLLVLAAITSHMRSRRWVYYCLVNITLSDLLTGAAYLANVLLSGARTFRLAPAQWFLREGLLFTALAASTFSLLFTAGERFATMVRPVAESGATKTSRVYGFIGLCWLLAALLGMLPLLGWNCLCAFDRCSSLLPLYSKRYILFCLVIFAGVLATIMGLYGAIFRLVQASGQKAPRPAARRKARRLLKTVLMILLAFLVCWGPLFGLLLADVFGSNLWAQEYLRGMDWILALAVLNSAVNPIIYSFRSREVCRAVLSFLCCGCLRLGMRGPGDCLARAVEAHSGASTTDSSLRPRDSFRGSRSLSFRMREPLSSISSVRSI

S1P2-5 = test: competitive S1Ps cell membrane binding assay against [32P]S1P, S1P2-5 reported together
From the text: (§1) One way to measure affinity is use of a general competition binding assay.

S1P1 = S1P1 (Homo sapiens, UniProt P21453); test: competitive S1Ps cell membrane binding assay against [32P]S1P, S1P1
From the text: as §1

S1P5 = S1P5 (Homo sapiens, UniProt Q9H228); test: competitive S1Ps cell membrane binding assay against [32P]S1P, S1P5; conditions: Table 5; read-out: IC50 (nM) S1P5
From the text: as §1

S1P3 = S1P3 (Homo sapiens, UniProt Q99500); test: competitive S1Ps cell membrane binding assay against [32P]S1P, S1P3; conditions: Table 6
S1P2 = S1P2 (Homo sapiens, UniProt O95136); test: competitive S1Ps cell membrane binding assay against [32P]S1P, S1P2; conditions: Table 6
[1] = Table 7, read-out: IC50 (nM) S1P2-5
[2] = read-out: IC50 (nM) S1P1, Table 5

S1P5, sequence (Q9H228 whole entry, species assumed): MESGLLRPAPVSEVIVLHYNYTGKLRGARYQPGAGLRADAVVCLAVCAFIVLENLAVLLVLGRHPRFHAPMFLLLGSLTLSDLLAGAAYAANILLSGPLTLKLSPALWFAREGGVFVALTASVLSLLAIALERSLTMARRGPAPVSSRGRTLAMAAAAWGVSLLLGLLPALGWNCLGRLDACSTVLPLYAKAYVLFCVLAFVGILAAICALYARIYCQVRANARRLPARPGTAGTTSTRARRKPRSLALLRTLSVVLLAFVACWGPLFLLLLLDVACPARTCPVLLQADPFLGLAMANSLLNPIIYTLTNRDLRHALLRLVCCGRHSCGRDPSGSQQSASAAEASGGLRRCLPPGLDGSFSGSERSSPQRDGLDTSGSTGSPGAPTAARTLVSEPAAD
S1P1, sequence (P21453 whole entry, species assumed): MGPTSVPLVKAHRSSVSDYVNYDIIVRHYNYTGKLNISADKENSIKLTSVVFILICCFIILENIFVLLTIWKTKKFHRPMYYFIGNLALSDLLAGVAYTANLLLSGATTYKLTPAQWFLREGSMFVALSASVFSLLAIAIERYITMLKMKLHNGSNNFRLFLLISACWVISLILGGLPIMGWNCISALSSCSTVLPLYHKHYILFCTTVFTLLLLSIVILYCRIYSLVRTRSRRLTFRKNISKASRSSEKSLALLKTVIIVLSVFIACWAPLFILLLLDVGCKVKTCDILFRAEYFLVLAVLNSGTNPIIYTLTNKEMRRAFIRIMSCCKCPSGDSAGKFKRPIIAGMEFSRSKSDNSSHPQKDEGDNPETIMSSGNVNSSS
S1P2, sequence (O95136 whole entry, species assumed): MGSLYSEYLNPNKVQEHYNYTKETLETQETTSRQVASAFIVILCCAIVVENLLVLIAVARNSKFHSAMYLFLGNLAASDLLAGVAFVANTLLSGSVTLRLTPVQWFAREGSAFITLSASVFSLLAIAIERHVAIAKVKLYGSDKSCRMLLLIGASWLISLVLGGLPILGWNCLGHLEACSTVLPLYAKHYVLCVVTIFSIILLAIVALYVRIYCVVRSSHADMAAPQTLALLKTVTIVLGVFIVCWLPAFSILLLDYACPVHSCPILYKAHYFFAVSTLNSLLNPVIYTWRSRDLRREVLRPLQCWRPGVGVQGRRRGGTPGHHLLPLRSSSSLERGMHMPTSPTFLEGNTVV
S1P3, sequence (Q99500 whole entry, species assumed): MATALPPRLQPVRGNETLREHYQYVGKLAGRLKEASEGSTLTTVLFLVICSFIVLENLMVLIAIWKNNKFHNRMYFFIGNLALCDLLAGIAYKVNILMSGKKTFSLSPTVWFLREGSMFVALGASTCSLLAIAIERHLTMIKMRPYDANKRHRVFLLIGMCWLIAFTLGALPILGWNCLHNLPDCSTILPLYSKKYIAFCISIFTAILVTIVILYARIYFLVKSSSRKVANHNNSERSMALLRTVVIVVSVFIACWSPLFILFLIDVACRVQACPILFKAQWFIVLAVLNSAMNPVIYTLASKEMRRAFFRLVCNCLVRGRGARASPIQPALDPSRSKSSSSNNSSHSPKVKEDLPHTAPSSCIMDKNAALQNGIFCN

Structure (SMILES): Cc1ccccc1-c1ccc(-c2nc(-c3ccc(CN(C)CCC(=O)O)c(F)c3)no2)cc1C(F)(F)F [TZ33-21]
- IC50 (S1P4; Table 5, read-out: IC50 (nM) S1P4): > 1000 nM
- IC50 (S1P2-5; [1]): > 1000 nM
- IC50 (S1P2-5; read-out: IC50 for S1P2-5): > 1000 nM

Structure (SMILES): OC(c1ccc(-c2noc(-c3ccc(OCCF)c(C(F)(F)F)c3)n2)cc1)C(F)(F)F (stereo not shown) [TZ73-27]
- IC50 (S1P1; IC50 (nM) S1P1, Table 5): 15 ± 2.6 nM

Structure (SMILES): CN(C(=O)OC(C)(C)C)c1cccc(-c2noc(-c3ccc(OCCF)c(C(F)(F)F)c3)n2)c1 [TZ73-124]
- IC50 (S1P1; IC50 (nM) S1P1, Table 5): > 1000 nM

Structure (SMILES): Cc1ccccc1-c1ccc(-c2nc(-c3ccc(COCCO)c(I)c3)no2)cc1C(F)(F)F [TZ73-127]
- IC50 (S1P1; IC50 (nM) S1P1, Table 5): 66.3 nM

Structure (SMILES): Cc1ccccc1-c1ccc(-c2nc(-c3ccc(CO)c(F)c3)no2)cc1C(F)(F)F [TZ73-135]
- IC50 (S1P2-5; [1]): > 1000 nM

Structure (SMILES): Cc1ccccc1-c1ccc(-c2nc(-c3ccc(CN(C)CCC(=O)O)c(I)c3)no2)cc1C(F)(F)F [TZ73-143]
- IC50 (S1P1; IC50 (nM) S1P1, Table 5): 5.2 ± 2.7 nM

Structure (SMILES): Cc1ccccc1-c1ccc(-c2nc(-c3ccc(CO)cc3)no2)cc1C(F)(F)F [TZ82-1]
- IC50 (S1P5): 55.6 nM
- IC50 (S1P1; IC50 (nM) S1P1, Table 5): 4.6 nM

Structure (SMILES): Cc1ccccc1-c1ccc(-c2nc(-c3ccc(CCCCO)cc3)no2)cc1C(F)(F)F [TZ82-2]
- IC50 (S1P5): 764 nM
- IC50 (S1P1; IC50 (nM) S1P1, Table 5): 9.8 nM

Structure (SMILES): Cc1ccccc1-c1ccc(-c2nc(-c3ccc(COCCO)c(F)c3)no2)cc1C(F)(F)F [TZ82-3]
- IC50 (S1P2-5; [1]): > 1000 nM

Structure (SMILES): Cc1ccccc1-c1ccc(-c2nc(-c3cccc4[nH]ccc34)no2)cc1C(F)(F)F [TZ82-4]
- IC50 (S1P5): 28.4 nM
- IC50 (S1P1; IC50 (nM) S1P1, Table 5): 1.1 ± 0.1 nM

Structure (SMILES): Cc1ccccc1-c1ccc(-c2nc(-c3ccc(CO)c(F)c3)no2)cc1C(F)F [TZ82-26]
- IC50 (S1P5): 85.2 nM
- IC50 (S1P1; IC50 (nM) S1P1, Table 5): 2.9 nM

Structure (SMILES): Cc1ccccc1-c1ccc(-c2nc(-c3ccc(COCCCCCO)c(F)c3)no2)cc1C(F)(F)F [TZ82-29]
- IC50 (S1P1; IC50 (nM) S1P1, Table 5): 4.9 nM
- IC50 (S1P1; IC50 (nM) S1P1, Table 7): 16.1 ± 0.3 nM
- IC50 (S1P2-5; [1]): > 1000 nM

Structure (SMILES): CC(C)(C)OC(=O)Nc1cccc(-c2noc(-c3ccc(OCCF)c(C(F)(F)F)c3)n2)c1 [TZ82-40]
- IC50 (S1P1; IC50 (nM) S1P1, Table 5): > 1000 nM

The remaining lines, values ahead:

- IC50 (S1P2-5; [1]): > 1000 nM
Structure (SMILES): OCCOCc1ccc(-c2noc(-c3ccc(OCCF)c(C(F)(F)F)c3)n2)cc1 [TZ48-77]

- IC50 (S1P2-5; [1]): > 1000 nM
Structure (SMILES): OCc1ccc(-c2noc(-c3ccc(OCCF)c(C(F)(F)F)c3)n2)cc1F [TZ67-138]

- IC50 (S1P1; [2]): 34 ± 2.4 nM
Structure (SMILES): FCCOc1ccc(-c2nc(-c3ccc4cc[nH]c4c3)no2)cc1C(F)(F)F [TZ73-11]

- IC50 (S1P1; IC50 (nM) S1P1, Table 5): 157 ± 24 nM
Structure (SMILES): OCCn1ccc2ccc(-c3noc(-c4ccc(OCCF)c(C(F)(F)F)c4)n3)cc21 [TZ73-14]

- IC50 (S1P1; IC50 (nM) S1P1, Table 5): 57 ± 4.6 nM
Structure (SMILES): OCCn1ccc2cc(-c3noc(-c4ccc(OCCF)c(C(F)(F)F)c4)n3)ccc21 [TZ73-15]

- IC50 (S1P1; IC50 (nM) S1P1, Table 5): 21 ± 2.5 nM
Structure (SMILES): CC(O)c1ccc(-c2noc(-c3ccc(OCCF)c(C(F)(F)F)c3)n2)cc1 (stereo not shown) [TZ73-28]

- IC50 (S1P1; IC50 (nM) S1P1, Table 5): 118 nM
Structure (SMILES): OCCOCc1ccc(-c2noc(-c3ccc(OCCF)c(C(F)(F)F)c3)n2)cc1I [TZ73-126]

- IC50 (S1P1; IC50 (nM) S1P1, Table 5): 17 ± 7 nM
Structure (SMILES): OCCOCc1ccc(-c2noc(-c3ccc(OCCF)c(C(F)(F)F)c3)n2)cc1F [TZ73-144]

- IC50 (S1P1; [2]): 33.1 ± 11.1 nM
Structure (SMILES): CN(CCC(=O)O)Cc1ccc(-c2noc(-c3ccc(OCCF)c(C(F)(F)F)c3)n2)cc1I [TZ73-147]

- IC50 (S1P3): > 1000 nM
- IC50 (S1P4; Table 6, read-out: IC50 for S1P4): > 1000 nM
- IC50 (S1P2): > 1000 nM
Structure (SMILES): CN(CCC(=O)O)Cc1ccc(-c2noc(-c3ccc(OCCF)c(C(F)(F)F)c3)n2)cc1F [TZ82-24]

- IC50 (S1P2-5; [1]): > 1000 nM
Structure (SMILES): FCCOc1ccc(-c2nc(-c3cccc4[nH]ccc34)no2)cc1C(F)(F)F [TZ82-34]

- IC50 (S1P1; [2]): 98 ± 26 nM
Structure (SMILES): FCCOc1ccc(-c2nc(-c3cccc4cc[nH]c34)no2)cc1C(F)(F)F [TZ82-35]

- IC50 (S1P1; IC50 (nM) S1P1, Table 5): 57 ± 7.6 nM
Structure (SMILES): FCCOc1ccc(-c2nc(-c3ccc4[nH]cnc4c3)no2)cc1C(F)(F)F [TZ82-36]

- IC50 (S1P1; IC50 (nM) S1P1, Table 5): 28 ± 5.8 nM
Structure (SMILES): OCc1nc2cc(-c3noc(-c4ccc(OCCF)c(C(F)(F)F)c4)n3)ccc2[nH]1 [TZ82-37]
